The test addresses T1, uterine OT receptors (Rattus norvegicus, UniProt P70536).
T1 construct: using a crude membrane preparation of uteri; from tissue; host or cells: uterus of DES-treated rats, crude membrane preparation
T1 sequence (P70536 1-388): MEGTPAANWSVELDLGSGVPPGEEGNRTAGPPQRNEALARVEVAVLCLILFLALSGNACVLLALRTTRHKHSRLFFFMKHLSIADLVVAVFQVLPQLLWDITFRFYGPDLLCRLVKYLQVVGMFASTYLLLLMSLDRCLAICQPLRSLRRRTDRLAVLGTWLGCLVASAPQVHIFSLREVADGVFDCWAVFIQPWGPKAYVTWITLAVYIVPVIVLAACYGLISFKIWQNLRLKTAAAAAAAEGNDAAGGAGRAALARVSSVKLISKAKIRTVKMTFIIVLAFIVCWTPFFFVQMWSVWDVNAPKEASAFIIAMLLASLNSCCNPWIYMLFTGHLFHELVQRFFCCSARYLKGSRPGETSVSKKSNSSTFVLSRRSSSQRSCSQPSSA
The test is described as follows: [³H]Oxytocin radioligand binding assay, crude membrane preparation of uteri from DES-treated rats. The conditions noted are these: for IC50: competition with 1 nM [³H]OT, 60 minutes, 22°C, concentration that inhibits 50% of OT, read-out: IC50; for inhibition at 0.1 µM: read-out: inhibition at 100 nM.

Method: The high affinity binding of [³H] Oxytocin (OT)([tyrosyl, 3,5-[³H]OT; 30-60 Ci/mmol; New England Nuclear. Boston, MA) to uterine OT receptors was based on an assay (Fuchs, A-R; Fuchs, F; Soloff, MS. 1985 J. Clin. Endocrinol. Metab. 60:37) using a crude membrane preparation of uteri taken from diethylstilbestrol dipropionate (DES)-treated (0.3 mg/kg, ip; 18-24) rats. Competition studies were conducted at equilibrium (60 minutes; 22°C) using 1 nM[³H]OT in the following assay buffer: 50 mM Tris-HCl, 5 mM MgCl₂, and 0.1% BSA, pH 7.4. Nonspecific binding (10% of the total binding) was determined using 1 mM unlabeled OT and the binding reaction was terminated by filtration through glass fiber filters using a cell harvester (model 7019, Skatron, Inc., Sterling, VA). IC₅₀ (the concentration of tested compound that inhibits 50% of OT) was reported, unless otherwise noted.

What is called IC50 is the concentration that gives 50% inhibition. `Cc1ccccc1N1CCN(S(=O)(=O)C[C@]23CC[C@H](C[C@@H]2N(C)C(=O)[C@H](CCS(C)(=O)=O)N(C)C)C3(C)C)CC1` [Example 42, 1-((7,7-Dimethyl-2-endo-methyl(2s-dimethylamino-4-(methylsulfonyl)-butanoyl)amino-bicyclo(2.2.1)heptan-1-yl)methanesulfonyl)-4-(2-methylphenyl)-piperazine]: the concentration for half-maximal inhibition (IC50) came to 9.2 nM. Take `Cc1ccccc1N1CCN(S(=O)(=O)C[C@]23CC[C@H](C[C@@H]2NC(=O)Cc2c[nH]cn2)C3(C)C)CC1` [Example 43]: the IC50 was 110 nM. For `Cc1ccccc1N1CCN(S(=O)(=O)C[C@]23CC[C@H](C[C@@H]2NC(=O)C(C)c2c[nH]cn2)C3(C)C)CC1` (stereo partly drawn) [Example 44, 1-((7,7-Dimethyl-2-endo-(2-(4-imidazolyl)propanoyl)-amino-bicyclo-(2.2.1)heptan-1-yl)methanesulfonyl)-4-(2-methylphenyl)piperazine], the IC50 came out at 26 nM. For orientation: inhibition means the relative decrease from the control value, in per cent. Regarding `CCOC(=O)CN1CCCC(C(=O)NCC(C)C2(O)CC3CCC2(CS(=O)(=O)N2CCN(c4ccccc4C)CC2)C3(C)C)C1` (stereo not drawn) [Example 50, 1-((7,7-Dimethyl-2-exo-hydroxy-2-endo-2-(1-(3-(1-ethoxycarbonyl-methyl)piperidinylcar-bonyl)amino)propyl-bicyclo(2.2.1)heptan-1-yl)methanesulfonyl)-4-(2-methylphenyl)piperazine], the inhibition at 0.1 µM is 66%. Still for that read-out and setting: the figure for `CCOC(=O)CN1CCCC1C(=O)NCC(C)C1(O)CC2CCC1(CS(=O)(=O)N1CCN(c3ccccc3C)CC1)C2(C)C` (stereo not drawn) [Example 52, 1-((7,7-Dimethyl-2-exo-hydroxy-2-endo-2-(1-(l-n-(ethoxycarboxymethyl)-prolyl)amino)propyl-bicyclo-(2.2.1)heptan-1-yl)methanesulfonyl)-4-(2-methylphenyl)piperazine] is 66%; for `CCOC(=O)CN1CCC(C(=O)NCC(C)C2(O)CC3CCC2(CS(=O)(=O)N2CCN(c4ccccc4C)CC2)C3(C)C)CC1` (stereo not drawn) [Example 57, 1-((7,7-Dimethyl-2-exo-hydroxy-2-endo-2-(1-(3-(1-ethoxycarbonyl-methyl)piperidinylcar-bonyl)amino)propyl-bicyclo(2.2.1)heptan-1-yl)methanesulfonyl)-4-(2-methylphenyl)piperazine] it is 66%.

Turning to “Two isomers of 1-((7,7-dimethyl-2-exo-hydroxy-2-endo-2-(1-(3-methoxycarbonyl)-2-pyrrolidinon-1-yl)propylbicyclo-(2.2.1)heptan-1-yl)methanesulfonyl)-4-(2-methylphenyl)piperazine [Example 26]”, the IC50 amounted to 35 nM. One may read the Kd as the free concentration of one partner at which half of the binding sites on the other are occupied at equilibrium, for simple one-to-one binding. A higher Kd goes with lower affinity. Where the note is “saturation binding assay, uterus”, [³H]OT [reference compound] yielded a Kd of 0.7 nM.

(Values after patent publication EP0532097A1, “Piperazinyl(sulfon)amide derivatives of camphor as oxytocin antagonists” (MERCK & CO. INC., priority 1991, dated 1993).)
